The values below come from ChEMBL document CHEMBL5608186, “Design, synthesis and structure-activity relationships of novel non-ketolides: 9-Oxime clarithromycin featured with seven-to thirteen-atom-length diamine linkers at 3-OH” (Eur J Med Chem, 2024).

Format in all cases: functional
Test [1] concerns Escherichia coli. As to the kind of experiment: Antibacterial activity against wild-type Escherichia coli SQ110 DTC incubated for 16 to 20 hrs by CLSI based broth microdilution method. The conditions noted are these: time 16-20 hrs.
Test [2] can be described thus: Inhibition of Escherichia coli DNA supercoiling assessed as reduction in protein synthesis by firefly luciferase gene assay.
Test [3] relates to Escherichia coli. As to the kind of experiment: Selectivity ratio of MIC for Escherichia coli SQ110 DTC harboring 23S rRNA A2058G mutant to MIC for wild-type Escherichia coli SQ110 DTC.
The test system of test [4] is Escherichia coli. The test is described as follows: Selectivity ratio of MIC for Escherichia coli SQ110 DTC harboring Gyr A Ser83Leu mutant to MIC for wild-type Escherichia coli SQ110 DTC.
Test [5] deals with Escherichia coli. As to the kind of experiment: Antibacterial activity against Escherichia coli SQ110 DTC harboring 23S rRNA A2058G mutant incubated for 16 to 20 hrs by CLSI based broth microdilution method. The conditions noted are these: time 16-20 hrs. (In general: Dilution methods test growth across graded concentrations, often in twofold steps.)
Test [6] has as its system Escherichia coli. As to the kind of experiment: Selectivity ratio of MIC for Escherichia coli SQ110 DTC harboring 23S rRNA A2058G/Gyr A Ser83Leu mutant to MIC for wild-type Escherichia coli SQ110 DTC.
The test system of test [7] is Escherichia coli. As to the kind of experiment: Antibacterial activity against Escherichia coli SQ110 DTC harboring 23S rRNA A2058G/Gyr A Ser83Leu mutant incubated for 16 to 20 hrs by CLSI based broth microdilution method. Particulars: time 16-20 hrs.
In test [8] the test system is Escherichia coli. The test is described as follows: Antibacterial activity against Escherichia coli SQ110 DTC harboring Gyr A Ser83Leu mutant incubated for 16 to 20 hrs by CLSI based broth microdilution method. The conditions noted are these: time 16-20 hrs.
The subject of test [9] is Streptococcus pneumoniae. The test is described as follows: Selectivity ratio of MBC for Streptococcus pneumoniae 07P390 harboring c-erm gene to MIC for Streptococcus pneumoniae 07P390 harboring c-erm gene.
Test [10] relates to Streptococcus pneumoniae. The test is described as follows: Bactericidal activity against Streptococcus pneumoniae PU 09 harboring mef gene incubated for 16 to 20 hrs by CLSI based broth microdilution method. Particulars: time 16-20 hrs.
Test [11] concerns Staphylococcus aureus. The test is described as follows: Antibacterial activity against methicillin-resistant Staphylococcus aureus PU 32 harboring i-ermA gene incubated for 16 to 20 hrs by CLSI based broth microdilution method. Particulars: time 16-20 hrs.
Test [12] deals with Streptococcus pneumoniae. As to the kind of experiment: Selectivity ratio of MBC for Streptococcus pneumoniae PU 09 harboring mef gene to MIC for Streptococcus pneumoniae PU 09 harboring mef gene.
Test [13] relates to Staphylococcus aureus. The test is described as follows: Bactericidal activity against methicillin-resistant Staphylococcus aureus PU 20 harboring c-ermA gene incubated for 16 to 20 hrs by CLSI based broth microdilution method. Particulars: time 16-20 hrs.
The test system of test [14] is Streptococcus pneumoniae. As to the kind of experiment: Antibacterial activity against Streptococcus pneumoniae PU 09 harboring mef gene incubated for 16 to 20 hrs by CLSI based broth microdilution method. The conditions noted are these: time 16-20 hrs.
The subject of test [15] is Streptococcus pyogenes. The test is described as follows: Selectivity ratio of MBC for Streptococcus pyogenes 01-968 harboring i-ermB gene to MIC for Streptococcus pyogenes 01-968 harboring i-ermB gene.
Test [16] has as its system Streptococcus pneumoniae. As to the kind of experiment: Antibacterial activity against Streptococcus pneumoniae 07P390 harboring c-erm gene incubated for 16 to 20 hrs by CLSI based broth microdilution method. Particulars: time 16-20 hrs.
In test [17] the test system is Haemophilus influenzae. As to the kind of experiment: Bactericidal activity against Haemophilus influenzae ATCC 49247 incubated for 16 to 20 hrs by CLSI based broth microdilution method. The conditions noted are these: time 16-20 hrs.
The subject of test [18] is Streptococcus pneumoniae. The test is described as follows: Antibacterial activity against Streptococcus pneumoniae ATCC 49619 incubated for 16 to 20 hrs by CLSI based broth microdilution method. Particulars: time 16-20 hrs.
Test [19] deals with Streptococcus pneumoniae. As to the kind of experiment: Bactericidal activity against Streptococcus pneumoniae ATCC 49619 incubated for 16 to 20 hrs by CLSI based broth microdilution method. Particulars: time 16-20 hrs.
Test [20] relates to Streptococcus pyogenes. As to the kind of experiment: Antibacterial activity against Streptococcus pyogenes 01-968 harboring i-ermB gene incubated for 16 to 20 hrs by CLSI based broth microdilution method. Particulars: time 16-20 hrs.
Test [21] has as its system Staphylococcus aureus. The test is described as follows: Selectivity ratio of MBC for methicillin-resistant Staphylococcus aureus PU 32 harboring i-ermA gene to MIC for methicillin-resistant Staphylococcus aureus PU 32 harboring i-ermA gene.
For test [22], the system named is Haemophilus influenzae. The test is described as follows: Antibacterial activity against Haemophilus influenzae ATCC 49247 incubated for 16 to 20 hrs by CLSI based broth microdilution method. The conditions noted are these: time 16-20 hrs.
In test [23] the test system is Staphylococcus aureus. As to the kind of experiment: Bactericidal activity against methicillin-resistant Staphylococcus aureus PU 32 harboring i-ermA gene incubated for 16 to 20 hrs by CLSI based broth microdilution method. Particulars: time 16-20 hrs.
Test [24] relates to Streptococcus pyogenes. The test is described as follows: Bactericidal activity against Streptococcus pyogenes 01-968 harboring i-ermB gene incubated for 16 to 20 hrs by CLSI based broth microdilution method. The conditions noted are these: time 16-20 hrs.
Test [25] deals with Streptococcus pneumoniae. As to the kind of experiment: Selectivity ratio of MBC for Streptococcus pneumoniae ATCC 49619 to MIC for Streptococcus pneumoniae ATCC 49619.
Test [26] deals with Staphylococcus aureus. As to the kind of experiment: Antibacterial activity against methicillin-resistant Staphylococcus aureus PU 20 harboring c-ermA gene incubated for 16 to 20 hrs by CLSI based broth microdilution method. Particulars: time 16-20 hrs.
Test [27] concerns Streptococcus pneumoniae. As to the kind of experiment: Bactericidal activity against Streptococcus pneumoniae 07P390 harboring c-erm gene incubated for 16 to 20 hrs by CLSI based broth microdilution method. Particulars: time 16-20 hrs.
Test [28] deals with Staphylococcus aureus. As to the kind of experiment: Selectivity ratio of MBC for methicillin-resistant Staphylococcus aureus PU 20 harboring c-ermA gene to MIC for methicillin-resistant Staphylococcus aureus PU 20 harboring c-ermA gene.
The test system of test [29] is Haemophilus influenzae. The test is described as follows: Selectivity ratio of MBC for Haemophilus influenzae ATCC 49247 to MIC for Haemophilus influenzae ATCC 49247.

What is called IC50 is the concentration at which inhibition is half-maximal.

Molecules are shown by their SMILES. Values after ≈ are worked out from the molar mass of the structure shown.

On to `CC[C@H]1OC(=O)[C@H](C)[C@@H](O[C@H]2C[C@@](C)(OC)[C@@H](O)[C@H](C)O2)[C@H](C)[C@@H](O[C@@H]2O[C@H](C)C[C@H](N(C)C)[C@H]2O)[C@](C)(O)C[C@@H](C)C(=O)[C@H](C)[C@@H](O)[C@]1(C)O` [ERYTHROMYCIN], for which the MIC against Escherichia coli [1] is 2 µg/mL (≈ 2.73 µM); against Escherichia coli [5] it was above 128 µg/mL; in the test with Escherichia coli [7] it was above 128 µg/mL; in the test with Escherichia coli [8], 2 µg/mL (≈ 2.73 µM). Also, the IC50 in test [2] is 1100 nM. In addition, the Selectivity ratio was above 64 with Escherichia coli [3], 1 with Escherichia coli [4] and above 64 with Escherichia coli [6].

For `CC[C@H]1OC(=O)[C@H](C)[C@@H](OC(=O)CCN2CCN(c3cc4c(cc3F)c(=O)c(C(=O)O)cn4C3CC3)CC2)[C@H](C)[C@@H](O[C@@H]2O[C@H](C)C[C@H](N(C)C)[C@H]2O)[C@](C)(OC)C[C@@H](C)/C(=N\OCCCc2cncc(C(=O)NC)c2)[C@H](C)[C@H]2OC(=O)O[C@@]21C`, the Selectivity ratio in the test on Streptococcus pneumoniae [9] is reported as 8; in the test on Streptococcus pneumoniae [12] it was 4; with Streptococcus pyogenes [15], above 8; in the test with Staphylococcus aureus [21], above 4; with Streptococcus pneumoniae [25] it was 2; in the test with Staphylococcus aureus [28], above 4. The Selectivity ratio in the test on Haemophilus influenzae [29] is on record as 1. Further, the MBC is 0.12 µg/mL (≈ 0.101 µM) with Streptococcus pneumoniae [10]; above 256 µg/mL against Staphylococcus aureus [13]; 2 µg/mL (≈ 1.68 µM) with Haemophilus influenzae [17]; 0.03 µg/mL (≈ 0.0252 µM) against Streptococcus pneumoniae [19]; above 256 µg/mL against Staphylococcus aureus [23]; above 32 µg/mL in the test with Streptococcus pyogenes [24]. This compound displayed an MBC against Streptococcus pneumoniae [27] of 16 µg/mL (≈ 13.4 µM). Also, the MIC against Staphylococcus aureus [11] is 64 µg/mL (≈ 53.7 µM); against Streptococcus pneumoniae [14] it was 0.03 µg/mL (≈ 0.0252 µM); against Streptococcus pneumoniae [16], 2 µg/mL (≈ 1.68 µM); against Streptococcus pneumoniae [18] it was 0.016 µg/mL (≈ 0.0134 µM); against Streptococcus pyogenes [20], 4 µg/mL (≈ 3.35 µM); against Haemophilus influenzae [22] it was 2 µg/mL (≈ 1.68 µM). This compound yielded an MIC in the test with Staphylococcus aureus [26] of 64 µg/mL (≈ 53.7 µM).

Consider `CC[C@H]1OC(=O)[C@H](C)[C@@H](OC(=O)CCNCCCNc2cc3c(=O)c(C(=O)O)cn(C4CC4)c3cc2Cl)[C@H](C)[C@@H](O[C@@H]2O[C@H](C)C[C@H](N(C)C)[C@H]2O)[C@](C)(OC)C[C@@H](C)/C(=N\OC)[C@H](C)[C@H]2OC(=O)O[C@@]21C`, for which the Selectivity ratio is 2 with Streptococcus pneumoniae [9]; 1 in the test with Streptococcus pneumoniae [12]; 4 with Streptococcus pyogenes [15]; above 8 with Staphylococcus aureus [21]; 2 in the test on Streptococcus pneumoniae [25]; 2 in the test with Staphylococcus aureus [28]. Also, the Selectivity ratio in the test with Haemophilus influenzae [29] is 1. Further, the MBC in the test with Streptococcus pneumoniae [10] was 2 µg/mL (≈ 1.93 µM); in the test on Staphylococcus aureus [13] it was 256 µg/mL (≈ 247 µM); with Haemophilus influenzae [17] it was 256 µg/mL (≈ 247 µM); in the test on Streptococcus pneumoniae [19], 0.5 µg/mL (≈ 0.483 µM); against Staphylococcus aureus [23], above 256 µg/mL; against Streptococcus pyogenes [24], 16 µg/mL (≈ 15.5 µM). Further, the MBC against Streptococcus pneumoniae [27] turned out to be 16 µg/mL (≈ 15.5 µM). Moreover, the MIC in the test with Staphylococcus aureus [11] turned out to be 32 µg/mL (≈ 30.9 µM); with Streptococcus pneumoniae [14], 2 µg/mL (≈ 1.93 µM); in the test on Streptococcus pneumoniae [16] it was 8 µg/mL (≈ 7.73 µM); in the test on Streptococcus pneumoniae [18] it was 0.25 µg/mL (≈ 0.242 µM); in the test with Streptococcus pyogenes [20], 4 µg/mL (≈ 3.87 µM); against Haemophilus influenzae [22], 256 µg/mL (≈ 247 µM). Moreover, the MIC with Staphylococcus aureus [26] came out at 128 µg/mL (≈ 124 µM).
